Source: patent US20260021196A1, “HOMOGENEOUS ANTIBODY-CONJUGATES WITH HIGH PAYLOAD LOADING” (SYNAFFIX B.V., priority 2023, published 2026)

Columns and labels:
Type in all cases: cell-based
NCI-N87 (HER2 3+) cells = experiment: In vitro cytotoxicity, resazurin cell viability (Examples 131-133); details: Homo sapiens, NCI-N87, 120 h; Table 8 / FIG. 22A, DAR8 ADCs and free payloads, 5 days incubation
Description: (§1) The cells were incubated for 5 days in a humidified atmosphere at 37° C. and 5% CO2. […] After approximately 4 hours in a humidified atmosphere at 37° C. and 5% CO2 the fluorescence was detected with a fluorescence plate reader (Infinite® M1000 Tecan) at 560 nm excitation and 590 nm emission. The relative fluorescent units (RFU) were normalized to cell viability percentage by setting wells without cells at 0% viability and wells with untreated cells at 100% viability (see FIGS. 22A-22C).
(§2) After approximately 4 hours in a humidified atmosphere at 37° C. and 5% CO2 the fluorescence was detected with a fluorescence plate reader (Infinite® M1000 Tecan) at 560 nm excitation and 590 nm emission. The relative fluorescent units (RFU) were normalized to cell viability percentage by setting wells without cells at 0% viability and wells with untreated cells at 100% viability (see FIGS. 23A-23B).
as §1, with “24A-24B).” for “22A-22C).”

BT-474 cells = experiment: In vitro cytotoxicity (Example 131); details: Homo sapiens, Table 8 / FIG. 22B, DAR8 ADCs and free payloads
Description: as §1

MDA-MB-231 (HER2−) cells = experiment: In vitro cytotoxicity, negative control cell line (Examples 131-133); details: Homo sapiens, MDA-MB-231, 120 h, Table 8 / FIG. 22C, 5 days incubation, read-out: IC50 (MDA-MB231 cells)
Description: as §1, §2
as §1, with “24A-24B).” for “22A-22C).”

Question: Which results are given for CO[C@@]12[C@H](COC(N)=O)C3=C(C(=O)C(C)=C(N)C3=O)N1C[C@@H]1N[C@@H]12 [Mitomycin (free payload), Mitomycin C]?
Answer: IC50 (NCI-N87 (HER2 3+) cells): 94 nM; IC50 (BT-474 cells): 905 nM; IC50 (MDA-MB-231 (HER2−) cells): > 100 nM
